# Assay results taken from ChEMBL document CHEMBL3632490, “Cytotoxic Barrigenol-like Triterpenoids from an Extract of Cyrilla racemiflora Housed in a Repository” (J Nat Prod, 2015).
# System: HT-29
# Assay: Cytotoxicity against human HT-29 cells assessed as inhibition of cell viability after 3 days by sulforhodamine B assay
# Assay type: functional, cell-based
# Conditions: HT-29, 72 h
row,Structure (SMILES),IC50 [µM]
1,CC1(C)C[C@H]2C3=CC[C@@H]4[C@@]5(C)C=CC(=O)C(C)(C)[C@@H]5CC[C@@]4(C)[C@]3(C)C[C@@H](O)[C@@]2(CO)[C@@H](O)[C@@H]1O,> 10
2,C/C=C(/C)C(=O)O[C@@H]1[C@@H](O)[C@H](O[C@H]2CC(C)(C)C[C@H]3C4=CC[C@@H]5[C@@]6(C)C=C[C@H](O)C(C)(C)[C@@H]6CC[C@@]5(C)[C@]4(C)C[C@@H](O)[C@@]23CO)O[C@H](CO)[C@H]1OC(=O)/C(C)=C\C,> 10
3,C/C=C(/C)C(=O)O[C@H]1[C@H](O)C(C)(C)C[C@H]2C3=CC[C@@H]4[C@@]5(C)CC[C@H](O)C(C)(C)[C@@H]5CC[C@@]4(C)[C@]3(C)[C@@H](O)[C@@H](O)[C@]21CO,> 10
4,C/C=C(/C)C(=O)O[C@H]1CC(C)(C)C[C@H]2C3=CC[C@@H]4[C@@]5(C)CC[C@H](O)C(C)(C)[C@@H]5CC[C@@]4(C)[C@]3(C)[C@@H](O)[C@@H](O)[C@@]12CO,8.7
5,C/C=C(/C)C(=O)O[C@H]1[C@H](OC(C)=O)[C@]2(CO)[C@H](O)C[C@]3(C)C(=CC[C@@H]4[C@@]5(C)CC[C@H](O)C(C)(C)[C@@H]5CC[C@]43C)[C@@H]2CC1(C)C,7.8
6,C/C=C(/C)C(=O)O[C@H]1[C@H](O)[C@]2(CO)[C@H](O)C[C@]3(C)C(=CC[C@@H]4[C@@]5(C)CC[C@H](O)C(C)(C)[C@@H]5CC[C@]43C)[C@@H]2CC1(C)C,1.7

# System: not listed separately
# Assay: Cytotoxicity against human CCD-112CoN cells assessed as inhibition of cell viability after 3 days by sulforhodamine B assay
# Assay type: cell-based
# Conditions: 72 h
row,Structure (SMILES),IC50 [µM]
1,CC(=O)O[C@H]1C(=O)[C@@]2(C)[C@H]([C@H](OC(=O)c3ccccc3)[C@]3(O)C[C@H](OC(=O)[C@H](O)[C@@H](NC(=O)c4ccccc4)c4ccccc4)C(C)=C1C3(C)C)[C@]1(OC(C)=O)CO[C@@H]1C[C@@H]2O [PACLITAXEL],19.3
2,C/C=C(/C)C(=O)O[C@H]1[C@H](O)[C@]2(CO)[C@H](O)C[C@]3(C)C(=CC[C@@H]4[C@@]5(C)CC[C@H](O)C(C)(C)[C@@H]5CC[C@]43C)[C@@H]2CC1(C)C,5.9
